Assay results reported in patent US20060111409A1, “Medicament for treatment of diabetes” (priority 2002, published 2006).

CC(=O)Oc1ccccc1C(=O)Nc1cc(Cl)cc(Cl)c1
melting point: 218 to 219 °C
